Measured values: patent US12479858B2, “Macrocyclic compounds as sting agonists and methods and uses thereof” (Lupin Limited, priority 2019, dated 2025)
Counter-ions that a name gives are not always drawn.

Experiments:
CT26 Allograft = test: Tumor volume in CT26 allograft BALB/c mice model, intravenous administration; assay type: in vivo; conditions: i.v., indicated dose at days 1, 4, and 8
Experimental: Effect of Compounds on Tumor Volume in CT26 Allograft BALB/c Mice Model by Intravenous (i.v.) Administration
Healthy, female BALB/c mice in the age group of 5-8 weeks issued from Research Animal Facility (RAF). These mice were housed in individually ventilated cages (IVC) in the experimental animal room and were acclimatized not less than 5 days prior to cell inoculation. All the experimental activities were carried out inside the biosafety cabinet to ensure sterility. Under aseptic conditions, Allograft tumor model was generated by inoculating BALB/c mice with 0.1 million CT26 single cell suspension (colorectal cancer model), using 1 mL disposable syringe fitted with a 26G ½″ sterile needle. Each mouse was inoculated with 100 μL of CT26 cell suspension in phosphate buffered saline (PBS) media, subcutaneously in right flank region. Mice were randomized into different groups, post cell inoculation, with approximately equal mean and equal variation (S.E.M.) of tumor volumes in various treatment groups including vehicle control group.
Tumor size was measured with Vernier caliper when the tumor became palpable. Tumor volume (T. V.) was calculated by using the formula: Tumor volume (mm^3)=(L×W^2)/2 • Where, L—Length of tumor, W—Width of tumor
Mice were selected and randomized, on the basis of tumor volume, into required no. of groups with approximately equal mean and equal variation on day 1 of treatment, post-tumor cell inoculation. All study groups were treated via intravenous route on day 1, 4 and 8 dosing schedule, through lateral tail vein at a dose volume of 5 mL/kg.
Tumor sizes were measured with Vernier caliper twice weekly and body weights of mice were recorded daily.
Percent tumor growth inhibition (% TGI) was calculated using the formula: % TGI=[1−(Tf−Ti)/(Cf−Ci)]×100 Wherein Tf and Ti are the final and initial test tumor volumes, respectively, and Cf and Ci are the final and initial control mean tumor volumes, respectively.
Percent Tumor Regression (% TR) was calculated using the formula: % TR=[(Initial T.V.−Final T.V.)/(Initial T.V.)]×100 Wherein T.V.=Tumor Volume
Body weight change (%) was calculated by using the formula: Body weight change (%)[=(Final B.Wt.)−(Initial B.Wt.)/Initial B.Wt.]×100 Wherein B.Wt.=Body weight

[1] = tested on: Interferon beta (IFNβ), interleukin-6 (IL-6) and tumor necrosis factor alpha (TNFα); test: Serum and tumor cytokine levels in CT26 tumor-bearing mice (ELISA); assay type: in vivo, BALB/c mice; conditions: 0.375 mg/kg single i.v.
Experimental: Pharmacokinetic and Pharmacodynamic Profiling and Estimation of Immune Cell Infiltration in Tumors Following Treatment with Compounds 2, 6, 8, 12 and 14
Serum and tumor cytokine levels and corresponding compound concentrations in mouse plasma were determined following single-dose intravenous administration in CT26 (murine colorectal carcinoma) tumor-bearing mice. Briefly, naïve BALB/c mice in the age group of 6-8 weeks were inoculated with 0.1 million CT-26 cells/animal in phosphate buffered saline (PBS), subcutaneously. […] Blood and tumor samples were harvested at various time points up to 24 h post-dose. Tumor samples were homogenized and prepared for cytokine estimation (ELISA) and compound concentration were determined by LC-MS/MS. Serum aliquots and tumor samples were snap-frozen and stored at −80° C. till further analysis. Serum and tumor samples were evaluated for Interferon beta (IFNβ), interleukin-6 (IL-6) and tumor necrosis factor alpha (TNFα) by enzyme linked immunosorbent assay (ELISA) using kits from R & D systems (Quantikine mouse IL-6 and TNFα kits) and PBL biosciences (Verikine mouse IFNβ kit).
Cytokine analysis from mouse serum samples: For IL-6 and TNFα estimation, 50 μL of test samples or internal standard or control were applied to wells in duplicates and incubated for 2 h at room temperature, followed by aspiration and washing four times with 400 μL of wash buffer. 100 μL of mouse IL-6 or TNFα conjugate solution was added and incubated further for 2 h at room temperature and followed later by 4 wash cycles. 100 μL of substrate solution was added to each well with addition of stop solution after 30 min. Optical density was measured at 450 nm averaged and was used for further calculations following subtraction of respective blank controls. Cytokine concentrations were determined by interpolating the optical density of samples into the reference standard curve utilizing four parameter logistic (4-PL) curve-fit. Cytokine concentrations were normalized with their respective dilution factors and represented in pg/mL. For IFNβ estimation, 100 μL test sample or internal standard or controls were applied to the wells in duplicates and incubated for 1 h at room temperature followed by three washes and addition of the anti-mouse IFNβ antibody solution with further 1 h incubation. This was followed by addition of horseradish peroxidase (HRP) solution and three washes, later addition of TMB substrate and reading the optical density at 450 nm. Optical densities were blank-subtracted and interpolated to the reference standard utilizing the four parameter logistic (4-PL) curve-fit. Cytokine concentrations were normalized with their respective dilution factors and represented in pg/mL. Tables 4 and 5 indicate cytokine levels for compounds 2, 6, 8, 12, and 14 in serum and tumor at different administered doses.
Cytokine analysis from tumor samples: Tumor samples were homogenized in a bead-based homogenizer and lysates were prepared with buffer supplemented with 1% Triton X-100 and protease inhibitors. Cytokine levels were estimated by ELISA and expressed as pg/g tumor.

CD3^+CD8^+ T cells = test: Estimation of immune cell infiltration in tumors (flow cytometry); assay type: in vivo, Balb/c mice
Experimental: Estimation of immune cell infiltration in tumors: CT-26 tumor-bearing Balb/c mice were treated intravenously with 0.375 mg/kg of test compounds and blood and tumors were processed for analysis of CD8^+, CD3^+ and CD45^+ T cells at 24 h and 96 h after start of treatment. Blood samples were subjected to RBC lysis and the cells were recovered by centrifugation. Following wash with PBS, the cells were blocked using TruStain FcX™ blocking antibody and stained with fluorophore-tagged anti-CD45, anti-CD3 and anti-CD8 antibodies. Tumor samples were minced and subjected to tissue digestion using freshly prepared collagenase-IV solution (1 mg/ml) containing DNase (0.05 mg/ml) for 1-1.5 h at 37° C. and 150-200 rpm. Single cell suspension was prepared by filtering it through a 100 μm mesh and checked for cell viability. Cells were stained with various antibodies as mentioned above. The distinct T cell subsets were analysed on FACS Canto II (BD) and percentage of each population was calculated after initial gating of CD45^+ lymphocyte population.

CCn1nc(C)cc1C(=O)Nc1nc2cc(C(N)=O)cc3c2n1C/C=C/Cn1c(NC(=O)c2cc(C)nn2CC)nc2cc(C(=O)N[C@H]4CC[C@H](c5nnn[nH]5)CC4)cc(c21)OCCCO3 [Compound 6, (E)-N-((1R,4R)-4-(1H-tetrazol-5-yl)cyclohexyl)-1,15-bis(1-ethyl-3-methyl-1H-pyrazole-5-carboxamido)-8,9,16,19-tetrahydro-7H-6,10-dioxa-2,14,15a,19a-tetraazacyclopentadeca[3,2,1-cd:8,9,10-c′d′]diindene-4,12-dicarboxamide sodium salt]
effect on tumor volume (CT26 Allograft): reduces tumor volume | subjects exhibiting complete tumor regression (CT26 Allograft): 7 out of 9 | Serum IFNβ ([1]; 3.5 h (Table 6)): 3375 ± 528.4 pg/mL | Tumor IFNβ ([1]; 3.5 h (Table 6)): 6931 ± 1236.8 pg/g tumor | Serum IFNβ ([1]; 8 h (Table 6)): 215 ± 39.9 pg/mL | Tumor IFNβ ([1]; 8 h (Table 6)): 1814 ± 369.3 pg/g tumor | Serum IFNβ ([1]; 12 h (Table 6)): BLQ | Tumor IFNβ ([1]; 12 h (Table 6)): 1916 ± 842.7 pg/g tumor | Serum IFNβ ([1]; 24 h (Table 6)): BLQ | Tumor IFNβ ([1]; 24 h (Table 6)): 506 ± 239.1 pg/g tumor | % CD3^+CD8^+ T cells (CD3^+CD8^+ T cells; infiltration in tumor, 96 h post treatment, 0.375 mg/kg single i.v.): 13.9 ± 1.3% | % CD3^+CD8^+ T cells infiltrating the tumor as compared to the vehicle-treated group (CD3^+CD8^+ T cells; single i.v. dose of 0.375 mg/kg, 96 h post treatment initiation): increase
